{"source": "patent US20140243411A1", "about": "(priority 2011, published 2014)", "key": {"[1]": {"experiment": "In vitro percutaneous permeation of C2E5 nonaqueous gel spiked with [14C]-C2E5", "type": "in vitro ADME, Sprague-Dawley (SD) rat", "description": "An in vitro permeation study was carried out using a vertical diffusion cell system equipped with an autosampler (Hanson Microette Autosampling System, Hanson Research Co., USA). The area for permeation was 1.767 cm^2, and the receiver compartment volume was 7 mL. The experiments were run at 32° C. and stirred magnetically at 400 rpm. The receiver medium was 0.1M phosphate buffer (pH 7.4). SD rat skin samples were prepared by harvesting dorsal skin samples from freshly euthanized (<1 h) SD rats (n=9, 200-300 g). The skin was shaved and the subcutaneous fat tissue was carefully peeled from the dermis layer to remove potential interference due to high levels of esterase activity in subcutaneous tissue. The processed skin samples were inspected visually for membrane integrity. The qualified skin samples were stored at −20° C. until use. The SD rat skin samples were first allowed to thaw for at least 1 h in the receiver medium, and then mounted and clamped between the receiver and donor compartments of the diffusion cells. […] ([^14C]-C2E5; 50 mCi/mmol) labeled at carbon-1 (carbonyl carbon) was purchased from American Radiolabeled Chemicals, Inc., St. Louis, Mo.).\nCollected samples were dispensed into Ultima Gold™ scintillation cocktail at a ratio of 100 μL:10 mL and assayed directly for radioactivity by liquid scintillation counting (LSC) using a Packard TriCarb 3100TR (PerkinElmer Life and Analytical Sciences) with automatic quench correction. Samples were counted for 10 min or until a 5% confidence level was achieved. The samples were subsequently assayed for intact C2E5 and its metabolites using HPLC-FSA. The cumulative releases of C2E5 and its metabolites were plotted as a function of time.\nFick's law (Equation 4) has been used as a simple model to describe the steady-state diffusion of drug through the skin:\nwhere Jss=steady-state flux (mol/hr); D=drug diffusivity (cm^2/hr); h=membrane thickness (cm); Ksc/veh=drug's stratum corneum-vehicle partition coefficient; Cveh=drug concentration (mg/cm^3) in the vehicle; and A=surface area (cm^2). The cumulative amount of C2E5 and its metabolites permeated through the SD rat skin versus time is presented in FIG. 1, The overall concentrations of C2E5 and its metabolites in receiver compartment at different time points were calculated based on Equation 5.\nThe concentrations of C2E5 and its metabolites in the collected samples from the receiver compartment at different time points were analyzed by HPLC-FSA."}, "[2]": {"experiment": "In vitro C2E5 metabolism studies using SD rat skin S9 fractions", "type": "in vitro ADME"}, "[3]": {"experiment": "log D by partitioning into octanol and water phases", "type": "physicochemical", "conditions": "pH 6.0, octanol and water", "description": "More than a dozen esters and amide derivatives of DTPA were synthesized. […] C2E5 is an oil with a viscosity of 163 cps at 25° C. […] The density of C2E5 was determined to be 1.119 g/mL. […] The intrinsic partition coefficient (log P) of C2E5 is difficult to measure due to its instability at high pH. Thus, the log D6.0 was determined by measuring the partitioning of C2E5 into octanol and water phases."}, "[4]": {"experiment": "Pharmacokinetics of neat C2E5 and C2E5 non-aqueous gel, plasma LC/MS/MS (Example 9)", "type": "in vivo, Sprague-Dawley (SD) rats", "conditions": "SD rat plasma; 200 mg/kg", "description": "All animal studies were conducted according to a protocol approved by the University of North Carolina at Chapel Hill Institutional Animal Care and Use Committee (IACUC). Ten-week-old adult female Sprague-Dawley (SD) rats weighing from 200 to 300 g were used in these studies (Charles River Labs, Raleigh, N.C.). Food and water were given ad libitum. The animal room was kept at a controlled temperature (23° C.) and light cycle (light exposure from 8 AM to 8 PM). For the duration of the study, the rats were housed in metabolic cages individually with urine and feces collection until euthanasia at 24 h after neat C2E5 or C2E5 gel application.\nNeat C2E5 (i.e., only C2E5) at a dose of 200 mg/kg was applied using a 1 mL syringe to the same size area as a positive control. […] The mass of neat C2E5 or C2E5 gel applied was recorded for each animal to permit actual dose determination. […] The animals were observed during the study period and the body weight of the animals was recorded at pre-dose and prior to necropsy.\nAcidified plasma samples (100 μL) were first treated with 25 μL of ^13C—C2E5 stable-label internal standard (1000 ng/mL), followed by precipitation with MeCN (400 μL). […] After separation by liquid chromatography, the analytes and internal standard were detected on a triple quadrupole mass spectrometer using heated electrospray ionization (HESI-II) in the positive-ion mode. […]"}}}
{"smiles": "CCOC(=O)CN(CCN(CC(=O)OCC)CC(=O)OCC)CCN(CC(=O)OCC)CC(=O)OCC", "note": "[Formulation C2E5, penta-substituted ethyl ester of DTPA]", "values": [{"measurement": "cumulative amount of C2E5 and its metabolites permeated through the rat skin", "setting": "[1]; at 8 h", "result": 1.98, "unit": "μmol/cm^2"}, {"measurement": "initially applied C2E5 dose permeated through the rat skin (C2E5 and its metabolites)", "setting": "[1]; at 8 h, gel 6% EC10, 25% C2E5, 69% MIGLYOL 840", "result": "~10", "unit": "%"}, {"measurement": "cumulative amount of C2E5 and its metabolites permeated through the rat skin", "setting": "[1]; at 23 h", "result": 3.55, "unit": "μmol/cm^2"}, {"measurement": "diffusional lag time through SD rat skin", "setting": "[1]; gel 6% EC10, 25% C2E5, 69% MIGLYOL 840", "result": 0.33, "unit": "h"}, {"measurement": "Jss per unit area through SD rat skin", "setting": "[1]; steady-state between 2 h and 7 h, gel 6% EC10, 25% C2E5, 69% MIGLYOL 840", "result": 0.276, "unit": "μmol/cm^2/h"}, {"measurement": "conversion of C2E5 to DTPA", "setting": "[2]", "result": "only minimally observed"}, {"measurement": "logD", "setting": "[3]", "result": 2.2}, {"measurement": "C2E1 in plasma samples", "setting": "[4]", "result": "not detected"}]}
